For one data set, the system named is IFNγ receptor α chain. The experiment in a line: IFNγ dependent tyrosine phosphorylation of the IFNγ receptor α chain in Colo-205 cells (4G10 western blot). The class given is cell-based, human. The settings on record: pretreatment of Colo-205 cells with 1 mM. An excerpt:
For these experiments, Colo-205, a human adenocarcinoma cell line obtained from the ATCC, was used because it was known to express a high number of IFNγ receptors (10,000 receptors/cell) and has been well characterized with regard to both biologic responsiveness to IFNγ and IFNγ receptor […] phosphorylation (Hershey and Schreiber, 1989; Hershey et al., 1990 both of which are incorporated by reference). Colo-205 cells (5-10×10^7) were resuspended in one ml of PBS-10% FCS and were then incubated at 37° C., either in the presence or absence of rHuIFNγ (10,000 IRU). Purified recombinant human IFNγ was provided by Dr. Susan Kramer of Genentech, Inc. (South San Francisco, Calif.). […] Purified rHuIFNγ was radioiodinated, using Bolton Hunter reagent (ICN Chemicals, Radioisotope Division, Irvine, Calif.) to specific activities of 6.5-17.8 μCi/μg as described in Celada et al. (J Clin Invest 76:2196-2205, 1985 which is incorporated by reference). The reaction was stopped by adding 4 mls of ice-cold PBS. Cells were pelleted, washed once in ice-cold PBS, and then lysed in one ml of lysis buffer (25 mM Tris-HCl (pH 8.0), 1% NP-40, 150 mM NaCl, 1 mM sodium orthovanadate, 10 mM NaF, 1 mM PMSF, 5mM iodoacetamide, […] leupeptin and aprotinin). Solubilized cells were centrifuged at 15,000×g to remove cell nuclei and the supernatants were then incubated with 10 μg of GIR-94 for 30 minutes at 4° C. Protein G sepharose was added to the reaction mixture and the incubation continued for an additional 30 minutes. […]
To determine the amount of receptor precipitated at each time point, aliquots from each immunoprecipitate were subjected to western blot analysis using a monoclonal antibody (GIR-94, a murine antibody IgG2b) that is specific for the human IFNγ receptor extracellular domain. In the absence of added IFNγ, no tyrosine phosphorylated receptor was detected (FIG. 1, lane 1). […]
(In general: Immunoblotting shows a protein as a band on a membrane.)

A further data set deals with Colo-205 cells. Description: IFNγ dependent MHC class II induction on Colo-205 cells. The following applies: pretreatment of Colo-205 cells with 1 mM. The class given is cell-based, human. On the procedure:
To further characterize the tyrosine phosphorylation of the […] receptor and to partially validate its biologic significance, concomitant dose-response phosphorylation and MHC class II induction analyses were performed. Colo-205 cells (1×10^8 cells/ml) were stimulated for 5 minutes with the indicated concentrations of rHuIFNγ as shown in FIG. 2. Cells were lysed and the IFNγ receptor immunoprecipitated, subjected to SDS-PAGE and electrophoretically transferred to nitrocellulose membranes as described above. Membranes were blotted with the mAb 4G10 (anti-phosphotyrosine) as described. Colo-205 cells (1×10^8 cells/ml) were also stimulated for 5 minutes with the indicated concentrations of rHuIFNγ, washed, and incubated an additional 48 hours in the absence of rHuIFNγ. MHC class II expression was quantitated by flow cytometric analysis.

The target of another data set is T1, p91 (Homo sapiens, UniProt P42224).
T1 construct: endogenous in cells; host or cells: Colo-205 (human adenocarcinoma) cell homogenates
T1 sequence (P42224 1-750): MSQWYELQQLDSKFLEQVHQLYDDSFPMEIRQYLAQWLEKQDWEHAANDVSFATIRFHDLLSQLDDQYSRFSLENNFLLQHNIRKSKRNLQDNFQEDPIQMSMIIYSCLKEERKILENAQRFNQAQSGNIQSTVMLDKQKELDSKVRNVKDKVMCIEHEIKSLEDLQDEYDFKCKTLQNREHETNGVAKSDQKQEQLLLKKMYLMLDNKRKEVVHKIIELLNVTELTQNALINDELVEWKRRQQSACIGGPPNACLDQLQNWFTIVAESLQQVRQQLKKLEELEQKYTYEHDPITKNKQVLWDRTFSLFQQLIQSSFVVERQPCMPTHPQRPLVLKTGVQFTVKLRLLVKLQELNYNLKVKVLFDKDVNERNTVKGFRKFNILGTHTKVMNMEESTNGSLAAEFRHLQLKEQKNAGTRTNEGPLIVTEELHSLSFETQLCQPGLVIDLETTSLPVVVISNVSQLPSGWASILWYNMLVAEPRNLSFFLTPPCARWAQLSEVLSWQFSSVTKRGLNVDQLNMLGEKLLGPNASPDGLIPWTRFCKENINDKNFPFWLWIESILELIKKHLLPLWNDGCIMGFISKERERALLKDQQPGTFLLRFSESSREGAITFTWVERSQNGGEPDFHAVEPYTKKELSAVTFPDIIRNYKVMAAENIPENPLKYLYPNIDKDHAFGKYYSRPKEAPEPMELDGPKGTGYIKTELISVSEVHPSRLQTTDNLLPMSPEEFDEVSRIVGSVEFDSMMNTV
Description: Electrophoretic mobility shift assay (EMSA) of IFNγ-induced p91 activation in Colo-205 homogenates. The class given is biochemical. The following applies: phosphopeptide 3 μM. The source says: For this example, the finding that the latent IFNγ inducible transcription factor, p91, can be activated by IFNγ in a cell free system (Igarashi et al., Mol Cell Biol 13:1634-1640, 1993 which is incorporated by reference) was utilized to determine the biologic significance of the IFNγ induced tyrosine phosphorylation of the Y440 residue in the IFNγ receptor molecule. Colo-205 homogenates were stimulated with 1900 IRU of human IFNγ and p91 activation monitored using an electrophoretic mobility gel shift assay (EMSA) that employed a ^32 P-labeled 18 bp probe derived from the FcγR I gene promoter (Pearse et al., Proc Natl Acad Sci 90:4314-4318, 1993 which is incorporated by reference). The EMSAs were carried out essentially as described (Igarashi et al., supra). […] The reactions were then electrophoresed through a 6% polyacrylamide gel in 0.25×TBE for 3 hours at 150 V. Gels were dried and subsequently analyzed by autoradiography. […] Specificity of interactions were determined by the addition of 350 ng of the unlabeled GRR probe or 560 ng of the unlabeled 41 base pair double stranded oligonucleotide containing the ISRE of ISG15 (5'-GATCCATGCCTCGGGA-[…]-3' SEQ ID NO: 14) (David and Larner, Science 257:813-815, 1992 which is incorporated by reference). […]

Data set [1] in a line: Specific antiviral activity of rHuIFNγ. The following applies: purified recombinant human IFNγ.

Where a SMILES comes first, the peptide text is derived from it. [ ]: non-standard residue; d: D form. pY = N[C@@H](Cc1ccc(OP(=O)(O)O)cc1)C(=O)O

For `CO[C@H]1[C@@H](OC)C[C@H](C)[C@@H](OC)C2=CC(=O)C=C(NC(=O)/C(C)=C/C=C\[C@H](OC)[C@@H](OC(N)=O)/C(C)=C/[C@@H]1C)C2=O` [herbimycin A, reference compound], the “IFNγ dependent tyrosine phosphorylation of the IFNγ receptor α chain” value in the data set with IFNγ receptor α chain was “inhibited”. The “IFNγ dependent MHC class II induction” value with Colo-205 cells is “blocked”.

With `C[C@@H](O)[C@H](N)C(=O)N[C@@H](CO)C(=O)N[C@@H](Cc1ccccc1)C(=O)NCC(=O)N[C@@H](Cc1ccc(OP(=O)(O)O)cc1)C(=O)N[C@@H](CC(=O)O)C(=O)N[C@@H](CCCCN)C(=O)N1CCC[C@H]1C(=O)N[C@@H](Cc1c[nH]cn1)C(=O)O` [SEQ ID NO:3, Thr-Ser-Phe-Gly-Xaa-Asp-Lys-Pro-His] (H-TSFG[pY]DKPH-OH), the “inhibition of formation of activated p91-labeled probe complex” value at p91 is listed as 61%.

B1: rHuIFNγ: Purified recombinant human IFNγ provided by Genentech, Inc. (protein, UniProt P01579 24-161, looked up)
Interferon gamma: QDPYVKEAENLKKYFNAGHSDVADNGTLFLGILKNWKEESDRKIMQSQIVSFYFKLFKNFKDDQSIQKSVETIKEDMNVKFFNSNKKKRDDFEKLTNYSVTDLNVQRKAIHELIQVMAELSPAAKTGKRKRSQMLFRG
For B1, the specific antiviral activities in data set [1] was 3.8×10^7 IRU/mg.

These data come from patent US5731155A, “Compositions for inhibition of intracellular transcription factors and methods therefor” (Washington University, priority 1996, dated 1998).
